Measurements reported in PubChem BioAssay AID248 (DTP/NCI, 2004).
Several values for one entry are separate records, joined by “and”; a condition that tells them apart may be missing. Equal values may be shown once. Toxic doses and inconclusive results are not listed. No stated cut-off is given here; in the data, active means T/C of 150% or more; inactive means T/C below 125%.

Test system: L1210 leukemia ip in BDF1 mice, survival T/C
Assay: NCI In Vivo Anticancer Drug Screen. Data for tumor model L1210 Leukemia (intraperitoneal) in B6D2F1 (BDF1) mice
Conditions: endpoint: mean survival time, higher = longer survival
Method in brief: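 In this screen, tumor-bearing mice given compound are compared to those given vehicle, and their survival values are reported as a treated-to-control quotient.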

[1] = dose: 100.0 mg/kg/injection, schedule: Q04DX002 (ip), vehicle: Klucel (hydroxypropylcellulose) (HPC)
[2] = dose: 100.0 mg/kg/injection, schedule: Q04DX003 (ip), vehicle: Klucel (hydroxypropylcellulose) (HPC)
[3] = dose: 200.0 mg/kg/injection, schedule: Q04DX003 (ip), vehicle: Klucel (hydroxypropylcellulose) (HPC)
[4] = dose: 400.0 mg/kg/injection, schedule: Q04DX003 (ip), vehicle: Klucel (hydroxypropylcellulose) (HPC)
[5] = dose: 100.0 mg/kg/injection, schedule: Q01DX009 (ip), vehicle: Klucel (hydroxypropylcellulose) (HPC)
[6] = dose: 200.0 mg/kg/injection, schedule: Q01DX009 (ip), vehicle: Klucel (hydroxypropylcellulose) (HPC)
[7] = dose: 400.0 mg/kg/injection, schedule: Q01DX009 (ip), vehicle: Klucel (hydroxypropylcellulose) (HPC)
[8] = dose: 25.0 mg/kg/injection, schedule: Q04DX002 (ip), vehicle: saline
[9] = dose: 50.0 mg/kg/injection, schedule: Q04DX002 (ip), vehicle: saline
[10] = dose: 100.0 mg/kg/injection, schedule: Q04DX002 (ip), vehicle: saline
[11] = dose: 50.0 mg/kg/injection, schedule: Q01DX009 (ip), vehicle: saline
[12] = dose: 100.0 mg/kg/injection, schedule: Q01DX009 (ip), vehicle: saline

Measured: T/C

CC(=O)N1Cc2ccc(C=O)n2Cc2cc3c(cc21)OCO3
inactive: dose: 25.0 mg/kg/injection, schedule: Q04DX002 (ip), vehicle: Klucel (hydroxypropylcellulose) (HPC) 96 % of control | dose: 50.0 mg/kg/injection, schedule: Q04DX002 (ip), vehicle: Klucel (hydroxypropylcellulose) (HPC) 104 % of control | [1] 110 % of control

COC(=O)C(CCSC)NC(=O)CNC(=O)OCc1ccccc1 (stereo unspecified)
inactive: [2] 99 % of control | [3] 97 % of control | [4] 92 % of control

CC(=O)Nc1ccc(N=Nc2ccccc2)cc1F
inactive: [5] 94 % of control | [2] 98 % of control | [6] 97 % of control | [3] 94 % of control | [7] 97 % of control | [4] 91 % of control

CSc1ccc(NC(=O)Nc2cccc(O)c2)cc1
inactive: [5] 101 % of control | [2] 101 % of control | [6] 103 % of control | [3] 106 % of control | [7] 101 % of control | [4] 98 % of control

CCOC(=O)/C(C#N)=C/c1cccn1Cc1cc2ccccc2c2ccccc12
inactive: [8] 111 % of control | [9] 111 % of control | [10] 105 % of control

O/N=C\c1ccnc2ccccc12
inactive: dose: 100.0 mg/kg/injection, schedule: Q01DX009 (ip), vehicle: carboxymethylcellulose (CMC) 93 % of control and 98 % of control | dose: 100.0 mg/kg/injection, schedule: Q04DX002 (ip), vehicle: carboxymethylcellulose (CMC) 100 % of control (2×) and 104 % of control | dose: 100.0 mg/kg/injection, schedule: Q04DX003 (ip), vehicle: carboxymethylcellulose (CMC) 97 % of control | dose: 200.0 mg/kg/injection, schedule: Q01DX009 (ip), vehicle: carboxymethylcellulose (CMC) 105 % of control and 90 % of control | dose: 200.0 mg/kg/injection, schedule: Q04DX002 (ip), vehicle: carboxymethylcellulose (CMC) 95 % of control and 100 % of control (2×) | dose: 200.0 mg/kg/injection, schedule: Q04DX003 (ip), vehicle: carboxymethylcellulose (CMC) 104 % of control | dose: 400.0 mg/kg/injection, schedule: Q01DX009 (ip), vehicle: carboxymethylcellulose (CMC) 98 % of control | dose: 400.0 mg/kg/injection, schedule: Q04DX002 (ip), vehicle: carboxymethylcellulose (CMC) 100 % of control and 104 % of control and 90 % of control | dose: 400.0 mg/kg/injection, schedule: Q04DX003 (ip), vehicle: carboxymethylcellulose (CMC) 98 % of control

O=[N+]([O-])c1ccc(N=NN(CCF)CCF)cc1
inactive: dose: 6.25 mg/kg/injection, schedule: Q01DX Z (ip), vehicle: saline 93 % of control | dose: 10.0 mg/kg/injection, schedule: Q01DX Z (ip), vehicle: saline 97 % of control | dose: 30.0 mg/kg/injection, schedule: Q01DX Z (ip), vehicle: saline 108 % of control

C/C=C\c1ccc(OC(=O)Nc2ccc(C(=O)OCC)cc2)c(OC)c1
inactive: [5] 94 % of control | [6] 94 % of control | [7] 89 % of control

CC(=O)Oc1ccc2c(c1)oc(=O)c1ccc(C)cc12
inactive: [2] 92 % of control | [3] 87 % of control | [4] 92 % of control

CCC(=O)N/N=C(\N)N[N+](=O)[O-]
inactive: dose: 87.5 mg/kg/injection, schedule: Q04DX003 (ip), vehicle: Klucel (hydroxypropylcellulose) (HPC) 102 % of control | dose: 175.0 mg/kg/injection, schedule: Q04DX003 (ip), vehicle: Klucel (hydroxypropylcellulose) (HPC) 105 % of control | dose: 350.0 mg/kg/injection, schedule: Q04DX003 (ip), vehicle: Klucel (hydroxypropylcellulose) (HPC) 103 % of control

Nc1nc2ccccc2nc1N
inactive: [11] 96 % of control | dose: 50.0 mg/kg/injection, schedule: Q04DX003 (ip), vehicle: saline 105 % of control | [12] 104 % of control | dose: 100.0 mg/kg/injection, schedule: Q04DX003 (ip), vehicle: saline 101 % of control | dose: 200.0 mg/kg/injection, schedule: Q04DX003 (ip), vehicle: saline 108 % of control

O=[N+]([O-])C1CCCCCCCCCCC1
inactive: dose: 100.0 mg/kg/injection, schedule: Q01DX001 (ip), vehicle: other 96 % of control | dose: 200.0 mg/kg/injection, schedule: Q01DX001 (ip), vehicle: other 100 % of control | dose: 400.0 mg/kg/injection, schedule: Q01DX001 (ip), vehicle: other 96 % of control

CCOC(=O)n1[nH][nH]c2c(c(=O)n(C)c(=O)n2C)n1C(=O)OCC
inactive: dose: 75.0 mg/kg/injection, schedule: Q04DX003 (ip), vehicle: saline 95 % of control | dose: 150.0 mg/kg/injection, schedule: Q04DX003 (ip), vehicle: saline 95 % of control | dose: 300.0 mg/kg/injection, schedule: Q04DX003 (ip), vehicle: saline 94 % of control

CCOC(=O)c1ccc(NC(=S)NC(=O)c2ccco2)cc1
inactive: dose: 100.0 mg/kg/injection, schedule: Q01DX009 (ip), vehicle: saline with Tween-80 98 % of control | [2] 102 % of control | dose: 200.0 mg/kg/injection, schedule: Q01DX009 (ip), vehicle: saline with Tween-80 98 % of control | [3] 98 % of control | dose: 400.0 mg/kg/injection, schedule: Q01DX009 (ip), vehicle: saline with Tween-80 98 % of control | [4] 96 % of control

CN(C)CCC(=O)c1ccc(Cl)cc1
inactive: dose: 50.0 mg/kg/injection, schedule: Q01DX001 (ip), vehicle: saline 101 % of control | [11] 95 % of control and 117 % of control | dose: 100.0 mg/kg/injection, schedule: Q01DX001 (ip), vehicle: saline 101 % of control | [12] 99 % of control and 103 % of control | [10] 95 % of control and 103 % of control | dose: 200.0 mg/kg/injection, schedule: Q01DX001 (ip), vehicle: saline 101 % of control | dose: 200.0 mg/kg/injection, schedule: Q04DX002 (ip), vehicle: saline 93 % of control and 90 % of control

BrC1C(Br)C(Br)C2OC2C1Br (stereo unspecified)
inactive: [5] 96 % of control | [6] 102 % of control | [7] 98 % of control

CNc1ccccc1C(=O)N/N=C\c1ccc(Cl)cc1Cl
inactive: [1] 105 % of control | dose: 200.0 mg/kg/injection, schedule: Q04DX002 (ip), vehicle: Klucel (hydroxypropylcellulose) (HPC) 94 % of control | dose: 400.0 mg/kg/injection, schedule: Q04DX002 (ip), vehicle: Klucel (hydroxypropylcellulose) (HPC) 97 % of control

Cc1ccc(C2NC(=O)c3ccccc3N2)c(C)c1 (stereo unspecified)
inactive: dose: 50.0 mg/kg/injection, schedule: Q01DX009 (ip), vehicle: Klucel (hydroxypropylcellulose) (HPC) 100 % of control | [5] 94 % of control and 99 % of control | [2] 103 % of control | dose: 150.0 mg/kg/injection, schedule: Q01DX009 (ip), vehicle: Klucel (hydroxypropylcellulose) (HPC) 93 % of control | [6] 106 % of control | [3] 95 % of control | [7] 96 % of control | [4] 95 % of control

O=C(Nc1ccc(F)c(Cl)c1)Oc1ccc(Br)cc1Br
inactive: dose: 100.0 mg/kg/injection, schedule: Q04DX002 (ip), vehicle: saline with Tween-80 100 % of control | dose: 200.0 mg/kg/injection, schedule: Q04DX002 (ip), vehicle: saline with Tween-80 107 % of control | dose: 400.0 mg/kg/injection, schedule: Q04DX002 (ip), vehicle: saline with Tween-80 100 % of control

O=C(C[n+]1ccccc1)c1ccccc1
inactive: [8] 98 % of control | [9] 95 % of control | [10] 98 % of control

COc1cc(C=C(C(C)=O)C(C)=O)ccc1O
inactive: dose: 100.0 mg/kg/injection, schedule: Q04DX003 (ip), vehicle: saline with Tween-80 112 % of control | dose: 200.0 mg/kg/injection, schedule: Q04DX003 (ip), vehicle: saline with Tween-80 109 % of control

CCCNC(=O)Nc1ccc(C)cc1
inactive: dose: 100.0 mg/kg/injection, schedule: Q01DX001 (ip), vehicle: carboxymethylcellulose (CMC) 116 % of control | dose: 200.0 mg/kg/injection, schedule: Q01DX001 (ip), vehicle: carboxymethylcellulose (CMC) 94 % of control | dose: 400.0 mg/kg/injection, schedule: Q01DX001 (ip), vehicle: carboxymethylcellulose (CMC) 103 % of control
